Patent US9980936B2, “BH4 antagonists and methods related thereto” (Emory University, priority 2014, dated 2018)
Entries after “also recorded” stand apart in the source; their conditions may differ. Like-named read-outs stand apart in the source and are kept apart here.

Columns and labels:
[1] = tested on: Bcl2 and Bax in H460 xenograft tumor tissues; test: QD-IHF of Bcl2 and Bax conformational change in tumor tissues; type: in vivo, mice; conditions: 14 days
Source text: Quantum dot-based immunohistofluorescence (QD-IHF) technology has recently been developed as a valuable tool for simultaneous and concurrent immunostaining of multiple biomarkers in formalin-fixed paraffin-embedded (FFPE) tissues, thereby allowing for quantification of several biomarkers simultaneously on the same tissue slide. To determine whether BDA-366 induces Bcl2 conformation change by exposure of its BH3 domain in tumor tissues and whether the BH3 domain-exposed Bcl2 activates Bax, conformational changes in both Bcl2 and Bax were simultaneously analyzed by QD-IHF on the same tissue slide.

[2] = tested on: H460 cells; test: autophagy (LC3-II, GFP-LC3); type: cell-based
Description: Bcl2 directly interacts with Beclin-1 and suppresses Beclin-1-dependent autophagy. Inhibition of Bcl2 by ABT-737 not only induces apoptosis but also autophagy. […] To test whether disruption of Bcl2 BH4 by BDA-2 stimulates autophagy, H460 cells were treated with BDA-366 (1 μM) for 24 h. […] To further quantify the level of autophagy, a GFP-LC3 construct was used to indicate autophagosomes.

[3] = tested on: H460 cells; test: co-IP of Bcl2 with Bax and Bim; type: cell-based
Description: To test whether BDA-366-induced Bcl2 conformational change increases interaction between Bcl2 and Bax in cells, co-IP experiments were performed following treatment of H460 cells with BDA-366.

[4] = molecular target: T1, Bcl2 mutant D10A/N11A/R12A/E13A (AAAA) (Homo sapiens, UniProt P10415, D10A/E13A/N11A/R12A); test: competitive fluorescence polarization, compound BH4 mutant; type: binding
T1 construct: made in house
T1 sequence (P10415 whole entry D10A/N11A/R12A/E13A): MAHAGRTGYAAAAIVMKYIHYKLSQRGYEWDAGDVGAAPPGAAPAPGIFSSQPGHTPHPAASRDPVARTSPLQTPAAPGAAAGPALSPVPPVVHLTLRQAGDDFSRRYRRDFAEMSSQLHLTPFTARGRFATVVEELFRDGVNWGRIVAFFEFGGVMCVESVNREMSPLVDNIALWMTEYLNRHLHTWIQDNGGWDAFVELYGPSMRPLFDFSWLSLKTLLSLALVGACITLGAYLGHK
Source text: (§1) A panel of Bcl2 mutants were generated within the BH4 domain at the specific residues that were identified by the initial docking simulations, including D10A, N11A, R12A, E13A, M16A, K17A, H20A and D31A Bcl2 mutants. A compound Bcl2 mutant D10A/N11A/R12A/E13A (AAAA) was created. Recombinant proteins of these mutants were generated for BDA-2/Bcl2 binding analysis using a competitive fluorescence polarization. […] Second, WT and all Bcl2 mutants were exogenously overexpressed in H1299 cells that express undetectable levels of endogenous Bcl2.

[5] = in vivo
Description: (§2) In order to define the appropriate doses for in vivo experimentation, the maximum tolerated dose (MTD) was determined. Nu/Nu nude mice were treated in groups of 6 per dose level with increasing doses of BDA-366 (10-50 mg/kg/d) intraperitoneally (i.p.) for up to 12 days. […] Standard single-dose MTD treatment in normal C57BL/6 mice were measured. […] 10% of single dose MTD can usually be considered as the maximum therapeutic dose (30˜40 mg/kg) for continuous treatment.

[6] = tested on: NSCLC cell lines H157, Calu-1, H358, H460, H1975 and SCLC cell lines DMS53, DMS153, H146, H69; test: cell growth (SRB) and apoptosis (Annexin V/PI), lines with higher Bcl2; type: cell-based; conditions: relatively higher levels of Bcl2
Description: (§3) The effect of BDA-2 on cell growth and apoptosis was measured by SRB assay and Annexin V/PI binding, respectively, in both small cell lung cancer (SCLC) and non-small cell lung cancer (NSCLC) cell lines that express various levels of endogenous Bcl2.

[7] = Description: as §2
[8] = tested on: H460, H157, DMS53, DMS153 and H146 cells expressing Bcl2 shRNA; test: apoptotic cell death (Annexin-V/PI, FACS) after Bcl2 shRNA knock-down; type: cell-based; conditions: 1 μM, 72 h
Description: To determine whether Bcl-2 is the relevant target at the cellular level and whether cell killing is truly dependent on this particular mechanism, Bcl2 was specifically knocked down using three different Bcl2 shRNAs that target different regions in Bcl2 gene in five lung cancer cell lines, including two NSCLC cell lines (H460 and H157) and three SCLC cell lines (DMS53, DMS153 and H146). […] Cells expressing Bcl2 shRNA1, shRNA2, shRNA3 or control shRNA were treated with BDA-2 (1 μM) for 72 h. The level of apoptotic cell death was determined by analysis of Annexin-V/PI binding by FACS.

[9] = tested on: H1299 cells overexpressing Bcl2 AAAA mutant; test: cell survival of H1299 cells overexpressing compound Bcl2 AAAA mutant; type: cell-based
Source text: as §1

[10] = molecular target: purified, human Bcl2 protein (Homo sapiens, UniProt P10415); test: in vitro cell-free Bcl2 conformational change assay (IP with anti-Bcl2/BH3 domain antibody); type: biochemical
Chain of purified, human Bcl2 protein (P10415 whole entry, the tested form may be a part): as the sequence (P10415 whole entry D10A/N11A/R12A/E13A) above, with A10D, A11N, A12R, A13E counted along it
Description: To test whether BDA-2 directly induces Bcl2 conformational change, an in vitro cell-free assay was employed. Purified recombinant Bcl2 protein was incubated with increasing concentrations of BDA-2 in lysis buffer, followed by immunoprecipitation (IP) using the anti-Bcl2/BH3 domain antibody.

[11] = molecular target: Bcl-XL (Homo sapiens, UniProt Q07817); test: binding to other Bcl2 family members
Chain of Bcl-XL (Q07817 whole entry, species assumed): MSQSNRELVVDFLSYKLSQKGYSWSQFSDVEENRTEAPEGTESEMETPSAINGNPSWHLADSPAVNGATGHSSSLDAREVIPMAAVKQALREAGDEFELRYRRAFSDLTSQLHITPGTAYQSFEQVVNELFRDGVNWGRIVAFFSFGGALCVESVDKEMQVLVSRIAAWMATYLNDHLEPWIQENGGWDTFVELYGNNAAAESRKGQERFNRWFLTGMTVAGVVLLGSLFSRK

[12] = tested on: H460 or DMS53 cells expressing Bcl2 shRNA transfected with AAAA Bcl2 mutant; test: rescue of Bcl2-silenced cells with AAAA Bcl2 mutant; type: cell-based; conditions: 72 h
Source text: Whether expression of exogenous Bcl2 can restore the sensitivity of Bcl2-silenced lung cancer cells to BDA-2 and whether the BDA-2/BH4 binding is important for such effect was examined. WT and BDA-2 binding deficient D10A/N11A/R12A/E13A (AAAA) Bcl2 mutant cDNA in pCIneo or vector-only control were transfected into H460 or DMS53 cells expressing Bcl2 shRNA. It has been reported that if the shRNA is directed to the 3′ UTR or 5′ UTR of the gene, the effect of the shRNA1 can be rescued by ectopically expressing the protein using the wild-type or mutant cDNA. Because Bcl2 shRNA1 targets the 5′UTR of endogenous Bcl2, the silencing effect of shRNA1 on Bcl2 expression could be rescued by transfection of exogenous WT or AAAA Bcl2 mutant. After transfection, cells were treated with BDA-2 or the BH3 mimetic ABT-199 at the indicated concentrations for 72 h. […] The apoptotic effect of BDA-2 on lung cancer cells requires its BH4 binding.

[13] = tested on: H1299 cells overexpressing WT or Bcl2 single site mutants; test: cell survival of H1299 cells overexpressing exogenous WT or single site Bcl2 mutants; type: cell-based
Source text: as §1

[14] = tested on: PDX obtained from a patient with refractory SCLC; test: patient-derived xenografts (PDX) of refractory SCLC; type: in vivo, Mice; conditions: 20 mg/kg/d i.p., 2 weeks
Description: Mice carrying xenografts derived from a patient with refractory SCLC were treated with BDA-366 (20 mg/kg/d) via i.p. for 2 weeks.
To evaluate the anti-tumor activity of BDA-2 against SCLC in vivo, patient-derived xenografts (PDX) were established without intervening in vitro culture, which are expected to better recapitulate the SCLC tumor setting.

[15] = tested on: NSCLC cell lines A549 and H1299; SCLC cell lines DMS114 and H128; test: cell growth (SRB) and apoptosis (Annexin V/PI), lines with lower or undetectable Bcl2; type: cell-based; conditions: relatively lower or undetectable levels of endogenous Bcl2
Description: as §3

SMILES: CCN(CC)CC(O)CNc1ccc(NCC2CO2)c2c1C(=O)c1ccccc1C2=O (stereo not drawn) [BDA-366, 1-((3-(diethylamino)-2-hydroxypropyl)amino)-4-((oxiran-2-ylmethyl)amino)anthracene-9,10-dione]
- 6A7 binding to Bax (active form of Bax) in tumor tissues [1]: increased level of 6A7 binding to Bax
- exposure of the Bcl2 BH3 domain in tumor tissues [1]: dose-dependent exposure of the Bcl2 BH3 domain in tumor tissues
- total Bcl2 and Bax levels in tumor tissues [1]: no significant changes in total Bcl2 and Bax levels
- levels of LC3-II ([2]; 1 μM, 24 h): Increased levels of LC3-II
- percentage of GFP-LC3vac cells ([2]; compared to DMSO control): significantly increases
- Bcl2/Bax interaction [3]: enhanced Bcl2/Bax interaction
- Bcl2/Bim binding [3]: decreased Bcl2/Bim binding
- binding to AAAA Bcl2 mutant protein [4]: remarkably decreased BDA-2 binding
- time to death of mice ([5]; C57BL/6, mouse, 400 mg/kg): 4 days
- MTD ([5]; C57BL/6, mouse, maximum therapeutic dose for continuous treatment (10% of single dose MTD)): 30 to 40 mg/kg
- MTD ([5]; C57BL/6, mouse, single dose MTD): 300 to 400 mg/kg
- ALT and AST ([5]; mouse, 400 mg/kg): significantly enhanced
- pathological analysis for all organs ([5]; mouse, 400 mg/kg): microsteatosis in the liver and atrophic white pulp in the spleen
- weight loss or other toxicities (hematologic, liver and kidney functions) ([5]; mouse, ip, 300 mg/kg): did not cause weight loss or other toxicities
- sensitivity of cells [6]: more sensitive
- time within which dose was uniformly lethal ([7]; 40 mg/kg/d i.p.): ≤ 8 days
- time within which dose was uniformly lethal ([7]; 50 mg/kg/d i.p.): up to 12 days
- tolerability ([7]; 10 to 30 mg/kg/d i.p., up to 12 days): tolerable with no death recorded
- sensitivity (apoptotic cell death) after depletion of endogenous Bcl2 [8]: significantly reduced sensitivity
- cell survival on exposure, AAAA mutant overexpressed [9]: significantly prolonged cell survival
- direct induction of Bcl2 conformational change (BH3 exposure) [10]: enhanced the ability of the Bcl2/BH3 domain-specific antibody to bind Bcl2
- binding to Bcl-XL [11]: failed to bind
- binding to Bcl-XL ([11]; listed as BDA-2): did not bind
- sensitivity of cells restored after expression of AAAA Bcl2 [12]: not
- sensitivity of cells overexpressing WT or single site Bcl2 mutants [13]: enhanced sensitivity
- growth of SCLC PDX [14]: effectively suppressed the growth of PDX; also recorded: potently suppressed the growth of the SCLC PDX; also recorded: represses tumor growth in xenografts derived from SCLC patient
- sensitivity of cells [15]: less sensitive
